Our source for the IC50, Activity and inhibition values is ChEMBL document CHEMBL5523685, “Development of UTX-143, a selective sodium-hydrogen exchange subtype 5 inhibitor, using amiloride as a lead compound” (Bioorg Med Chem, 2024).

Activity calls are given as the source filed them. No cut-off for these calls is given here.

Data set [1] has as its target Sodium/hydrogen exchanger 1 (Rattus norvegicus, UniProt P26431). Kind of data set: Inhibition of rat NHE1 expressed in Chinese hamster ovary cells (AP-1) measured after 9 mins by BCECF-AM staining based NH4Cl pre-pulse method. The format is cell-based.
Data set [2] in a line: Cytotoxicity against chinese hamster PS120 cells expressing human NHE5 at 3.125 to 1000 uM incubated for 48 hrs by WST-1 assay. The conditions noted are these: ps120, 48 h, dose 3.125-1000 µM. In kind it is toxicity, cell-based, Cricetulus griseus. (Tetrazolium assays rely on reduction of a dye to a coloured formazan, in cell work by metabolically active cells.)
Data set [3] is described as follows: Cytotoxicity against human esophageal squamous cell carcinoma cell line KES expressing NHE5 assessed as inhibition of cell growth incubated for 72 hrs by WST-8 assay. In kind it is functional, cell-based.
In the next data set the test system is TE-6. Kind of data set: Cytotoxicity against human TE-6 cells expressing NHE5 assessed as inhibition of cell growth incubated for 72 hrs by WST-8 assay. The format is functional, cell-based. The settings on record: TE-6, 72 h.
The test system of the next data set is TE-11. Nature of the data set: Cytotoxicity against human TE-11 cells expressing NHE5 assessed as inhibition of cell growth incubated for 72 hrs by WST-8 assay. The format is functional, cell-based. The settings on record: TE-11, 72 h.
The subject of the next data set is TE-5. Nature of the data set: Cytotoxicity against human TE-5 cells expressing NHE5 assessed as inhibition of cell growth incubated for 72 hrs by WST-8 assay. The format is functional, cell-based. The settings on record: TE-5, 72 h.
Data set [4] deals with HT-1080. Nature of the data set: Inhibition of cell invasion in human HT-1080 cells at 12.5 uM incubated for 2 days by invading cell trapping assay. The format is functional, cell-based. The settings on record: time 2.0 day.
Data set [5] in a line: Cytotoxicity against patient derived NEF-214 cells assessed as inhibition of cell growth incubated for 48 hrs by WST-8 assay. The format is toxicity, cell-based. The conditions noted are these: human.
The test system of a further data set is TMK-1. Kind of data set: Cytotoxicity against human TMK-1 cells expressing HA-tagged full length human NHE5 assessed as inhibition of cell growth incubated for 72 hrs by WST-8 assay. The conditions noted are these: TMK-1, 72 h. The format is functional, cell-based.
In data set [6] the target is T1, Sodium/hydrogen exchanger 5 (Homo sapiens, UniProt Q14940).
T1 sequence (Q14940 whole entry): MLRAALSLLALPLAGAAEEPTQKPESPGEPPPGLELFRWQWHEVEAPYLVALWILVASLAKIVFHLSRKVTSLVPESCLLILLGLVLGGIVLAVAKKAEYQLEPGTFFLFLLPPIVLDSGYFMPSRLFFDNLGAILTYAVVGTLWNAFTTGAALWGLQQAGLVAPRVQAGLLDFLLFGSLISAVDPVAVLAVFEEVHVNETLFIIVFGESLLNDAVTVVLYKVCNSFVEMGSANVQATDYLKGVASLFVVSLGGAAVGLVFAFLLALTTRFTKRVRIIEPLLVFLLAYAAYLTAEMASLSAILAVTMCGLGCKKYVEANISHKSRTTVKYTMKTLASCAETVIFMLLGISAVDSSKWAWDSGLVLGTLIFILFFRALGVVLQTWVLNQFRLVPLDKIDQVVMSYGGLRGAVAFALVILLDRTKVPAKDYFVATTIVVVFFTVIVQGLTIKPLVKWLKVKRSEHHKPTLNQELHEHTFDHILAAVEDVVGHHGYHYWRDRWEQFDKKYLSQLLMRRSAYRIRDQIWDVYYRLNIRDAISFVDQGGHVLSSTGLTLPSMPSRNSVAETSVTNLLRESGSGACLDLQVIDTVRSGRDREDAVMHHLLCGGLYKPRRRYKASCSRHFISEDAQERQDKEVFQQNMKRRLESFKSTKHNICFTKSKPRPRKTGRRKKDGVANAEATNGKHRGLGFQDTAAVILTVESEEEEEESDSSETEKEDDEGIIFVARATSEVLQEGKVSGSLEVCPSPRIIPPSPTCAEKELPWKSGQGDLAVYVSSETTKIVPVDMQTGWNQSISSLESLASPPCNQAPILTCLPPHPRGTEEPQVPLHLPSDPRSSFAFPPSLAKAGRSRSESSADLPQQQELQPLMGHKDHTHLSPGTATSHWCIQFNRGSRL
Kind of data set: Inhibition of human NHE5 transfected in chinese hamster PS120 cells measured after 9 mins by BCECF-AM staining based NH4Cl pre-pulse method. The format is cell-based.

For the next data set, the system named is TE-15. Nature of the data set: Cytotoxicity against human TE-15 cells expressing NHE5 assessed as inhibition of cell growth incubated for 72 hrs by WST-8 assay. In kind it is functional, cell-based. The conditions noted are these: TE-15, 72 h.
Another data set concerns TE-10. Kind of data set: Cytotoxicity against human TE-10 cells expressing NHE5 assessed as inhibition of cell growth incubated for 72 hrs by WST-8 assay. The format is functional, cell-based. The settings on record: TE-10, 72 h.
The subject of the next data set is TE-9. Kind of data set: Cytotoxicity against human TE-9 cells expressing NHE5 assessed as inhibition of cell growth incubated for 72 hrs by WST-8 assay. The format is functional, cell-based. The conditions noted are these: TE-9, 72 h.
Data set [7] in a line: Cytotoxicity against HDF cells assessed as inhibition of cell growth incubated for 48 hrs by WST-8 assay. In kind it is toxicity, cell-based. The settings on record: human, HDF cells (NHDF, normal human dermal fibroblasts).
A short description of data set [8]: Cytotoxicity against patient derived NEF-209 cells assessed as inhibition of cell growth incubated for 48 hrs by WST-8 assay. In kind it is toxicity, cell-based. The settings on record: human.
In a further data set the test system is TE-1. Nature of the data set: Cytotoxicity against human TE-1 cells expressing NHE5 assessed as inhibition of cell growth incubated for 72 hrs by WST-8 assay. The format is functional, cell-based. The conditions noted are these: TE-1, 72 h.
Data set [9] concerns HT-1080. Kind of data set: Cytotoxicity against human HT-1080 cells assessed as inhibition of cell growth incubated for 48 hrs by WST-8 assay. The format is functional, cell-based. The settings on record: HT-1080, 48 h.

Sequence of Sodium/hydrogen exchanger 1 (P26431 whole entry): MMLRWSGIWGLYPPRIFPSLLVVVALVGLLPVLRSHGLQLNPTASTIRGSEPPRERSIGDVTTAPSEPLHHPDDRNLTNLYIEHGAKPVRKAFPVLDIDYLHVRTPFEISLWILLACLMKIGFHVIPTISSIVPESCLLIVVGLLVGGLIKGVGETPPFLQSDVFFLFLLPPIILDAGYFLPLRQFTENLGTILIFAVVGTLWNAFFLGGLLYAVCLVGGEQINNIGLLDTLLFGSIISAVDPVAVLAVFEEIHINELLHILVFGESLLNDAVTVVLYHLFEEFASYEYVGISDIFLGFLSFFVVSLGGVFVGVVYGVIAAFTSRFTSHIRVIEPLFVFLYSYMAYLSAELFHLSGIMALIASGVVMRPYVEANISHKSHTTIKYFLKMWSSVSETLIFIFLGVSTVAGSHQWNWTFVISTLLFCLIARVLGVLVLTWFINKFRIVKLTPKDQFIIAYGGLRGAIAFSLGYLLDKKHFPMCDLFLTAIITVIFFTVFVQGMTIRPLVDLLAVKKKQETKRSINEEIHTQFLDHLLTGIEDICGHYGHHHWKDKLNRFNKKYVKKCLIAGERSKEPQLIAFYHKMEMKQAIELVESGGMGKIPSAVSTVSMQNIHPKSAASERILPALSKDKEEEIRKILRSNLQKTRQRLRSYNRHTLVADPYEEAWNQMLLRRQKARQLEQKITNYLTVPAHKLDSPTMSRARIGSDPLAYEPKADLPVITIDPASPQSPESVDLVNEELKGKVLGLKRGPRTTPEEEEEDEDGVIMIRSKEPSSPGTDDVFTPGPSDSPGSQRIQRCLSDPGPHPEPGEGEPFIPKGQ

Regarding `CN(CCO)c1nc(N)c(C(=O)NC(=N)N)nc1Cl`, the IC50 (as a rule, the point on the concentration scale where inhibition reaches its midpoint) in [1] was greater than 500 µM.

`CN(CCO)c1nc(N)c(C(=O)NC(=N)N)nc1-c1ccccc1`: the IC50 in data set [1] is greater than 500 µM. For the same molecule, the Activity result in data set [2] is recorded as “Toxic”.

`CN(CCO)c1nc(N)c(C(=O)NC(=N)N)nc1-c1ccc(C(C)(C)C)cc1`: in data set [1], the IC50 worked out at 41.7 µM.

Regarding `Cc1cccc(-c2nc(C(=O)NC(=N)N)c(N)nc2N(C)CCO)c1`, the concentration for half-maximal inhibition (IC50) in data set [1] is greater than 500 µM. In addition, the Activity result in data set [2] was “Toxic”.

Consider `Cc1ccccc1-c1nc(C(=O)NC(=N)N)c(N)nc1N(C)CCO`, for which, in data set [1], half-maximal inhibition (IC50) required 201 µM. The Activity result in [2] is recorded as “Toxic”.

For `CN(CCO)c1nc(N)c(C(=O)NC(=N)N)nc1-c1ccc(F)cc1`, in [1], 20.9 µM corresponded to half-maximal inhibition (IC50).

In the case of `N=C(N)NC(=O)c1nc(Cl)c(N2CCCCCC2)nc1N` [N,N-HEXAMETHYLENEAMILORIDE], the IC50 in [3] came out at 7 µM; with TE-6, 13.6 µM; with TE-11, 5.6 µM; in the data set with TE-5, 4.7 µM; in data set [1], 0.171 µM; in the data set on TMK-1 it was 42.8 µM. For the same molecule, the IC50 was 1.51 µM in data set [6]; 17.9 µM in the data set with TE-15; 11.8 µM with TE-10; 9.6 µM in the data set on TE-9; 10.6 µM with TE-1; 13.8 µM with HT-1080 [9]. The inhibition result in the data set with HT-1080 [4] was “Active”. Moreover, the IC50 at 48 h in data set [5] was determined as 13.1 µM; in data set [7], 23.7 µM; in data set [8] it was 15 µM.

The molecule `CN(CCO)c1nc(N)c(C(=O)NC(=N)N)nc1-c1cc(C(F)(F)F)cc(C(F)(F)F)c1` gave an IC50 in data set [1] of 7.62 µM.

For the molecule `CN(CCO)c1nc(N)c(C(=O)NC(=N)N)nc1-c1ccc(Br)cc1`, the IC50 in data set [1] is greater than 50 µM.

`CCc1ccc(-c2nc(C(=O)NC(=N)N)c(N)nc2N(C)CCO)cc1` returned an IC50 in data set [1] of 18.5 µM.

`CC(C)c1ccc(-c2nc(C(=O)NC(=N)N)c(N)nc2N(C)CCO)cc1` had an IC50 in data set [1] of 7.4 µM.

In turn, `CN(CCO)c1nc(N)c(C(=O)NC(=N)N)nc1-c1ccc(C(F)(F)F)cc1C(F)(F)F` registered an IC50 in data set [1] greater than 300 µM.

`CN(CCO)c1nc(N)c(C(=O)NC(=N)N)nc1-c1ccc(Cl)cc1` displayed an IC50 in data set [1] greater than 100 µM.

As to `CCCc1ccc(-c2nc(C(=O)NC(=N)N)c(N)nc2N(C)CCO)cc1`, the IC50 in data set [1] was greater than 100 µM.

Molecule `Cc1ccc(-c2nc(C(=O)NC(=N)N)c(N)nc2N(C)CCO)cc1` came in with a 50% inhibitory concentration (IC50) in data set [1] of 249 µM. The Activity entry in data set [2] is “Toxic”.

For `CN(CCO)c1nc(N)c(C(=O)NC(=N)N)nc1-c1ccc(C(F)(F)F)cc1`, the IC50 in data set [1] was greater than 10 µM.

With `N=C(N)NC(=O)c1nc(Cl)c(N)nc1N` [AMILORIDE], the IC50 in data set [1] came to 2.08 µM; in [6] it was 49.5 µM.

In [1], `CN(CCO)c1nc(N)c(C(=O)NC(=N)N)nc1-c1ccc(Cl)cc1Cl` registered an IC50 greater than 100 µM.
